Peptide text beside a SMILES is read from it. * marks the point of attachment. Biotin = O=C1N[C@H]2[C@H](CS[C@H]2CCCCC(=O)*)N1
Molecular target: T1, PDZ protein (GST-PDZ fusion) (Homo sapiens, UniProt Q07157)
T1 construct: made in house; host or cells: E. coli (DH5alpha, BL21 or JM109)
Assay: G' assay (10 uM PL peptide), results of TABLE 7 and TABLE 12
Format: binding
Settings: PDZ ZO-1, PDZ Domain 2
Procedure, shortened: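 Binding classes derive from A450 nm of bound biotin-tagged PL peptide. A score of 5 needs A450 above 4 in more than two repeats.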

T1 sequence (Q07157 whole entry, the tested form may be a part): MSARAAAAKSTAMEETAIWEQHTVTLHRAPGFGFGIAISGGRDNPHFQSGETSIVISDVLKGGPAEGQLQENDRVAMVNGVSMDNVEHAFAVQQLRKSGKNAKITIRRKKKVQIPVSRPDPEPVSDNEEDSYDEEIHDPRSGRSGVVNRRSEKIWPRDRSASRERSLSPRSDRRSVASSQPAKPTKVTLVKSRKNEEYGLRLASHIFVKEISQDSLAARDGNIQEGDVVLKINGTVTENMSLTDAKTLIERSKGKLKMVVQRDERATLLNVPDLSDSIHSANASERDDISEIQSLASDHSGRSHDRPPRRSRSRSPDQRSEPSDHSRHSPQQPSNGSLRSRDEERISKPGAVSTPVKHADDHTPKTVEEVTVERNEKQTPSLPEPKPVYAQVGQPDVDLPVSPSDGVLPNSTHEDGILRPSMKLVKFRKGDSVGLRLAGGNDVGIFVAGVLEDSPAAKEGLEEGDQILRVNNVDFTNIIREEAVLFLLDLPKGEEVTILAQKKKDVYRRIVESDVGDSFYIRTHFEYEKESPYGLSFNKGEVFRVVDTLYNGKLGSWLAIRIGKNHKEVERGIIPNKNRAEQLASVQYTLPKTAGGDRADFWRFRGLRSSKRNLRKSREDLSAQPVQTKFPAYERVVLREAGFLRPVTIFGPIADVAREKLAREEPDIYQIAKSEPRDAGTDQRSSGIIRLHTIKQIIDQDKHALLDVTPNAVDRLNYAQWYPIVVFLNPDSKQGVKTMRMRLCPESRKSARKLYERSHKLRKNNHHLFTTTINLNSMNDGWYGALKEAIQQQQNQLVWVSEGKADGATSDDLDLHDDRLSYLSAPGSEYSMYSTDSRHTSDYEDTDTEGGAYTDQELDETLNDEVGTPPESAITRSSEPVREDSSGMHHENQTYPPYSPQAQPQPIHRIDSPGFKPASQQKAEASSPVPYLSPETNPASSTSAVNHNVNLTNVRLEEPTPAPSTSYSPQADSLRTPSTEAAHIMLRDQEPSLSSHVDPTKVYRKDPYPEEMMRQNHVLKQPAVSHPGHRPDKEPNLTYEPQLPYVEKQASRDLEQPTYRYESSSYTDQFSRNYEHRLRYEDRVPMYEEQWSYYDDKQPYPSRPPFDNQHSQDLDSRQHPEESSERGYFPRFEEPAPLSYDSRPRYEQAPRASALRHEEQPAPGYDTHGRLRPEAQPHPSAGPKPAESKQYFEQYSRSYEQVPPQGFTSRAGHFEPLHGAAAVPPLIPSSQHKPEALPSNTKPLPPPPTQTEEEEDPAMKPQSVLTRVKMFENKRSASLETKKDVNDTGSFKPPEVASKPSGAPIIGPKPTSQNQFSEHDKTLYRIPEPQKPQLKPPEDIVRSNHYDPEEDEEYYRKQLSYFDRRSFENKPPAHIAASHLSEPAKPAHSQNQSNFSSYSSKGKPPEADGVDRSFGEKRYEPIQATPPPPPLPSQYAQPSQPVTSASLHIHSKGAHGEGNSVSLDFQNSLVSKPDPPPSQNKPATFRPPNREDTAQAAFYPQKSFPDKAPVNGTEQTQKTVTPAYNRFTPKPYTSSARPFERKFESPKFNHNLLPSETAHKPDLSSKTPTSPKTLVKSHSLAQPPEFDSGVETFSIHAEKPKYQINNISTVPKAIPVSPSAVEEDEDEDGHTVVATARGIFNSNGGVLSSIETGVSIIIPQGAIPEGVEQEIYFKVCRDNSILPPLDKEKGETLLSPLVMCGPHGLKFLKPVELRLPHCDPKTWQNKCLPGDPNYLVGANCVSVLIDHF

Structure (SMILES) | Classification
CC(C)C[C@H](NC(=O)[C@H](Cc1c[nH]c2ccccc12)NC(=O)[C@H](Cc1c[nH]cn1)NC(=O)[C@H](CCCNC(=N)N)NC(=O)[C@H](CC(C)C)NC(=O)[C@@H](NC(=O)[C@H](Cc1ccccc1)NC(=O)[C@H](CCC(N)=O)NC(=O)[C@H](CCCNC(=N)N)NC(=O)[C@@H](NC(=O)[C@H](CCC(=O)O)NC(=O)CNC(=O)[C@H](CCCNC(=N)N)NC(=O)[C@H](CC(=O)O)NC(=O)[C@@H](NC(=O)[C@H](CC(C)C)NC(=O)[C@H](CCC(=O)O)NC(=O)[C@H](CCCNC(=N)N)NC(=O)CCCC[C@@H]1SC[C@@H]2NC(=O)N[C@@H]21)C(C)C)C(C)C)[C@@H](C)O)C(=O)N[C@@H](CCCCN)C(=O)N[C@H](C(=O)O)C(C)C [Dopamine transporter (Na+-dependent)] (Biotin-RELVDRGEVRQFTLRHWLKV-OH; C-terminus assumed) | 1 (A450 nm 0-1)
CC[C@H](C)[C@H](NC(=O)[C@H](C)NC(=O)[C@H](CC(C)C)NC(=O)[C@H](Cc1c[nH]c2ccccc12)NC(=O)[C@H](Cc1c[nH]cn1)NC(=O)[C@H](CCC(N)=O)NC(=O)[C@H](CC(C)C)NC(=O)[C@H](CCC(N)=O)NC(=O)[C@H](Cc1ccccc1)NC(=O)[C@H](CCC(N)=O)NC(=O)[C@H](CCCNC(=N)N)NC(=O)[C@@H](NC(=O)[C@H](CC(=O)O)NC(=O)[C@H](CCCNC(=N)N)NC(=O)[C@H](CCC(N)=O)NC(=O)[C@H](C)NC(=O)[C@@H](NC(=O)[C@H](CC(C)C)NC(=O)[C@H](Cc1c[nH]cn1)NC(=O)[C@H](Cc1c[nH]cn1)NC(=O)CCCC[C@@H]1SC[C@@H]2NC(=O)N[C@@H]21)C(C)C)[C@@H](C)CC)C(=O)O [noradrenaline transporter] (Biotin-HHLVAQRDIRQFQLQHWLAI-OH; C-terminus assumed) | 2 (A450 nm 1-2)

Source: patent US20050282743A1, “Molecular interactions in cells” (Arbor Vita Corporation, priority 2001, published 2005)
